Literature values in patent US20190022229A1, “CANNABINOID/TERPENE ENRICHED CAPRYLIC ACID” (priority 2017, published 2019).

Settings: over an eight-hour period; compared with capric acid (C10) alone; from Vandenberghe et al. 2016

In the case of `CCCCCCCC(=O)O` [caprylic acid], the “increase in total plasma ketone levels relative to capric acid (C10) alone” value is listed as “approximately three times more”.
